Assays:
[1] = test system: splicing of Ad2 pre-mRNA in HeLa nuclear extract; assay: In vitro splicing (IVS) biochemical assay; settings: 30° C.
Description: Biotin-labeled pre-mRNA of an adenovirus type 2 construct with a deletion of intervening sequence (Ad2) (Berg, M. G., et al. 2012 Mol. Cell Bio., 32(7):1271-83) was prepared by in vitro transcription. The Ad2 construct containing Exon 1 (41 nucleotides), Intron (231 nucleotides), and Exon 2 (72 nucleotides) was generated by gene synthesis and cloned into the EcoRI and XbaI sites of pGEM®-3Z vector (Promega) by Genewiz® (South Plainfield, N.J.). The plasmid was then linearized by XbaI digestion and purified. In vitro transcription and purification of transcribed pre-mRNA were performed using the MEGAscript® T7 transcription kit (Invitrogen™, Life Technologies™, Grand Island, N.Y.) and MEGAclear™ transcription clean-up kit (Invitrogen™, Life Technologies™, Grand Island, N.Y.), respectively, following the manufacturer's instructions. The ratio of biotin-16-UTP (Roche Diagnostics Corporation, Indianapolis, Ind.) to cold UTP was 1:13 to incorporate approximately two biotin molecules per spliced Ad2 mRNA.
In vitro splicing assay was performed at 30° C. in 25 μL reaction mixtures containing 95 μg HeLa nuclear extract (Promega Corporation, Madison, Wis.), 47 nM Ad2 pre-mRNA, 25 U RNasin RNase inhibitor (Promega Corporation, Madison, Wis.), 1×SP buffer (0.5 mM ATP, 20 mM creatine phosphate, 1.6 mM MgCl2), and compounds in DMSO (with 1% final concentration of DMSO). After […] of incubation, the reaction was stopped by addition of 18 μL of 5M NaCl, and the mixtures were incubated with 10 μL of M-280 streptavidin-coated magnetic beads (Invitrogen™, Life Technologies™, Grand Island, N.Y.) for 30 min at room temperature to capture Ad2 pre- and spliced mRNA. The beads were washed twice with 100 uL buffer containing 10 mM Tris pH=7.5, 1 mM EDTA and 2M NaCl, and then incubated in RNA gel loading buffer containing 95% formamide at 70° C. for 10 min to elute the RNAs. Ad2 RNAs were resolved by 6% TBE-UREA gel, transferred to a nylon membrane, UV cross-linked, and probed with an IRDye® labeled streptavidin (LI-COR, Lincoln, Nebr.). The amount of spliced RNA was quantified by measuring the band fluorescent intensity using LI-COR Image Studio software.
The in vitro splicing (IVS) assay described above is a biochemical assay that monitors inhibition of the splicing of an exemplary pre-mRNA into an mRNA.

[2] = test system: Nalm-6 SF3B1^K700E isogenic cells (human pre B-cell line) xenograft; assay: Nalm-6 SF3B1^K700E mouse xenograft efficacy model; assay type: in vivo, CB17-SCID mice; settings: orally dosed daily for 14 days (QD×14 PO)
Description: The efficacy of Compound 2 was tested in a mouse xenograft model. Nalm-6 SF3B1^K700E isogenic cells (human pre B-cell line, 10×10^6 cells) were subcutaneously implanted into the flank of female CB17-SCID mice. Mice were treated with Compound 2 (10% ethanol, 5% TWEEN-80, 85% saline) or vehicle control. The animals were orally dosed daily for 14 days (QD×14 PO) at the amounts indicated in FIG. 2 and were monitored until they reached either of the following endpoints: 1) excessive tumor volume measured three times a week (tumor volume calculated by using the ellipsoid formula: (length×width^2)/2); or 2) development of any health problems such as paralysis or excessive body weight loss. All animal studies were carried out according to the H3 Biomedicine Guide for the Care and Use of Laboratory Animals.
The efficacy of Compound 1 was tested in a mouse xenograft model. […] The animals were orally dosed daily for 14 days (QD×14 PO) with 7.5 mg/kg or 10 mg/kg Compound 1 or vehicle and were monitored until they reached either of the following endpoints: 1) excessive tumor volume measured three times a week (tumor volume calculated by using the ellipsoid formula: (length×width^2)/2); or 2) development of any health problems such as paralysis or excessive body weight loss. […]

[3] = test system: Pre-EIF4A1 and SLC25A19 expression in Nalm-6 SF3B1^K700E xenograft tumors; assay: PK/PD testing in Nalm-6 mouse xenograft model; assay type: in vivo, CB17-SCID mice; settings: single oral dose
Description: Pharmacokinetics (PK)/pharmacodynamics (PD) of Compound 2 were also analyzed in the Nalm-6 mouse xenograft model. Nalm-6 SF3B1^K700E isogenic cells (human pre B-cell line, 10×10^6 cells) were subcutaneously implanted into the flank of female CB17-SCID mice. Mice were administered a single oral dose of 10 mg/kg Compound 2 (10% ethanol, 5% TWEEN-80, 85% saline), and the tumors were collected at the indicated times post administration for analysis.
RNA was isolated using RiboPure™ RNA purification kit (Ambion®) and used for qPCR analysis. The RNA was retrotranscribed according to the instructions of the SuperScript® VILO™ cDNA synthesis kit (Invitrogen™), and 0.04 μl of cDNA was used for quantitative PCR (qPCR). qPCR for pre-mRNA EIF4A1 and mature mRNA […] and PK evaluation were performed as reported previously (Eskens, F. A. et al. Phase I pharmacokinetic and pharmacodynamic study of the first-in-class spliceosome inhibitor E7107 in patients with advanced solid tumors. Clin Cancer Res. 19, 6296-6304, doi:10.1158/1078-0432.CCR-13-0485 (2013)). All animal studies were carried out according to the H3 Biomedicine Guide for the Care and Use of Laboratory Animals.
Pharmacokinetics (PK)/pharmacodynamics (PD) of Compound 1 were also analyzed in the Nalm-6 mouse xenograft model. […]

[4] = test system: Panc 05.04 cancer cells (SF3B1^MUT) vs BXPC3, HPAFII, PANC0403, PANC1005, CFPAC1 and MIAPACA2; assay: Cellular viability assay, mutant vs wild-type SF3B1 pancreatic cancer cell lines; assay type: cell-based; settings: 72 hours at 37° C., 384-well plate
Description: To assess the viability of Panc 05.04 cancer cells (SF3B1^MUT) (Q699H and K700E mutations in SF3B1) in the presence of Compound 2, cells were seeded at 750 cells per well in a 384-well plate and treated with Compound 2 at the concentrations indicated in FIG. 4 for 72 hours at 37° C. The relative number of viable or apoptotic cells were measured by luminescence using CELLTITER-GLO® luminescent Cell Viability Assay (Promega).

Row | SMILES | IC50 [1] [nM] | efficacy / tumor growth in xenograft mouse model [2] | PD responses (fold change in Pre-EIF4A1 and SLC25A19 expression in tumor) [3] | differential cellular lethality, mutant vs wild-type SF3B1 pancreatic cancer cell lines [4]
1 | C/C(=C\C=C\[C@@H](C)c1ccccn1)[C@H]1OC(=O)C[C@H](O)CC[C@@](C)(O)[C@@H](OC(=O)N2CCN(C3CCCCCC3)CC2)/C=C/[C@@H]1C [Compound 1, (2S,3S,6S,7R,10R,E)-7,10-dihydroxy-3,7-dimethyl-12-oxo-2-((R,2E,4E)-6-(pyridin-2-yl)hepta-2,4-dien-2-yl)oxacyclododec-4-en-6-yl 4-cycloheptylpiperazine-1-carboxylate] | 188 | efficacious when administered via the oral route and reduced tumor growth | showed PD responses at a tolerated dose | –
2 | C/C(=C\C=C\[C@@H](C)c1ccccn1)[C@H]1OC(=O)C[C@H](O)CC[C@@](C)(O)[C@@H](OC(=O)N2CCN(C)CC2)/C=C/[C@@H]1C [Compound 2, (2S,3 S,6S,7R,10R,E)-7,10-dihydroxy-3,7-dimethyl-12-oxo-2-((R,2E,4E)-6-(pyridin-2-yl)hepta-2,4-dien-2-yl)oxacyclododec-4-en-6-yl 4-methylpiperazine-1-carboxylate] | 1330 | efficacious when administered via the oral route and reduced tumor growth | showed PD responses at a tolerated dose | differential cellular lethality in the mutant SF3B1 pancreatic cancer cell line over wild-type SF3B1 pancreatic cancer cell lines
3 | C/C(=C\C=C\[C@@H](C)c1ccccn1)[C@H]1OC(=O)C[C@H](O)CC[C@@](C)(O)[C@@H](OC(=O)N2CCC(N3CCCCC3)CC2)/C=C/[C@@H]1C [Compound 4, (2S,3 S,6S,7R,10R,E)-7,10-dihydroxy-3,7-dimethyl-12-oxo-2-((R,2E,4E)-6-(pyridin-2-yl)hepta-2,4-dien-2-yl)oxacyclododec-4-en-6-yl[1,4′-bipiperidine]-1′-carboxylate] | 89 | – | – | –
4 | C/C(=C\C=C\[C@@H](C)c1ccccn1)[C@H]1OC(=O)C[C@H](O)CC[C@@](C)(O)[C@@H](OC(=O)N2CCC(N3CCCCCC3)CC2)/C=C/[C@@H]1C [Compound 3, (2S,3S,6S,7R,10R,E)-7,10-dihydroxy-3,7-dimethyl-12-oxo-2-((R,2E,4E)-6-(pyridin-2-yl)hepta-2,4-dien-2-yl)oxacyclododec-4-en-6-yl 4-(azepan-1-yl)piperidine-1-carboxylate] | 770 | – | – | –
